The first assay concerns HCV pseudoparticles (genotype 1a HCV E1 and E2 envelope, H77C isolate). As to the kind of experiment: microbe, parasite or virus in culture. Type of assay: cell-based. The following applies: Hepatitis C virus, Huh-7, 48 h, HCV pseudoparticles (genotype 1a, H77C) in Huh7 cells; average of duplicate; luciferase 2 days after infection.
Regarding `N#Cc1ccc(-c2ccc(NC(=O)C(=O)NC/C(=N/C(=O)c3ccc(Nc4nc(NC5(c6ccc(Cl)cc6)CC5)nc(OCC(F)(F)F)n4)cc3)C(=O)O)cc2)cc1` [Compound 3170], the EC50 (as a rule, the concentration needed to bring the measured effect to its halfway point) stood at 0.63 nM.
For the compound `NC(=O)C(=O)NCC1(CNC(=O)c2ccc(Nc3nc(NC4(c5ccc(Cl)cc5)CC4)nc(OCC(F)(F)F)n3)cc2)CC1` [Compound 3175], the midpoint of the response, the EC50, lay at 0.11 nM.

Staying with this assay, now noted: Hepatitis C virus, Huh-7, read-out: Activity (EC50 class), HCV pseudoparticles (genotype 1a, H77C) in Huh7 cells; EC50 expressed as class A/B.
Consider `O=C(NC/C(=N/C(=O)c1ccc(Nc2nc(NC3(c4ccc(Cl)cc4)CC3)nc(OCC(F)(F)F)n2)cc1)C(=O)O)C(=O)Nc1ccc(C(=O)N2CCOCC2)cc1` [Compound 3166], for which the EC50 is 0.01 to 10 nM.
For `N#Cc1ccc(NC(=O)C(=O)NC/C(=N/C(=O)c2ccc(Nc3nc(NC4(c5ccc(Cl)cc5)CC4)nc(OCC(F)(F)F)n3)cc2)C(=O)O)cc1` [Compound 3167], the EC50 fell in the range of 0.01 to 10 nM.
Take `O=C(NC/C(=N/C(=O)c1ccc(Nc2nc(NC3(c4ccc(Cl)cc4)CC3)nc(OCC(F)(F)F)n2)cc1)C(=O)O)C(=O)Nc1ccc(-n2cncn2)cc1` [Compound 3168]: the half-maximal effective concentration (EC50) was 0.01 to 10 nM.
On to `O=C(NC/C(=N/C(=O)c1ccc(Nc2nc(NC3(c4ccc(Cl)cc4)CC3)nc(OCC(F)(F)F)n2)cc1)C(=O)O)C(=O)Nc1ccc(N2CCN(Cc3ccccc3)CC2)cc1` [Compound 3169], for which the EC50 fell in the range of 0.01 to 10 nM.
Take `N#Cc1ccc(-c2ccc(NC(=O)C(=O)NC/C(=N/C(=O)c3ccc(Nc4nc(NC5(c6ccc(Cl)cc6)CC5)nc(OCC(F)(F)F)n4)cc3)C(=O)O)cc2)cc1` [Compound 3170]: the EC50 fell in the range of 0.01 to 10 nM.
With `Cc1cc(C)nc(N(C)c2ccc(NC(=O)C(=O)NC/C(=N/C(=O)c3ccc(Nc4nc(NC5(c6ccc(Cl)cc6)CC5)nc(OCC(F)(F)F)n4)cc3)C(=O)O)cc2)n1` [Compound 3171], the 50% effective concentration (EC50) lay within 0.01 to 10 nM.
For `O=C(NC/C(=N/C(=O)c1ccc(Nc2nc(NC3(c4ccc(Cl)cc4)CC3)nc(OCC(F)(F)F)n2)cc1)C(=O)O)C(=O)Nc1ccc(-n2cccn2)cc1` [Compound 3173], the EC50 was in the range of 0.01 to 10 nM.
Same read-out and setting: the result for `Cc1cc(C)n(-c2ccc(NC(=O)C(=O)NC/C(=N/C(=O)c3ccc(Nc4nc(NC5(c6ccc(Cl)cc6)CC5)nc(OCC(F)(F)F)n4)cc3)C(=O)O)cc2)n1` [Compound 3174] reads 0.01 to 10 nM; that for `NC(=O)C(=O)NCC1(CNC(=O)c2ccc(Nc3nc(NC4(c5ccc(Cl)cc5)CC4)nc(OCC(F)(F)F)n3)cc2)CC1` [Compound 3175], 0.01 to 10 nM.
Regarding `Cn1cc(NC(=O)C(=O)NCC(C)(C)CNC(=O)c2ccc(Nc3nc(NC4(c5ccc(Cl)cc5)CC4)nc(OCC(F)(F)F)n3)cc2)cn1` [Compound 3176], the EC50 was 0.01 to 10 nM.
As to `Cc1cc(C)n(-c2ccccc2NC(=O)C(=O)NCC(C)(C)CNC(=O)c2ccc(Nc3nc(NC4(c5ccc(Cl)cc5)CC4)nc(OCC(F)(F)F)n3)cc2)n1` [Compound 3177], the EC50 was 0.01 to 10 nM.
For `Cn1cnc(NC(=O)C(=O)NCC(C)(C)CNC(=O)c2ccc(Nc3nc(NC4(c5ccc(Cl)cc5)CC4)nc(OCC(F)(F)F)n3)cc2)c1` [Compound 3178], the EC50 lay in the range of 0.01 to 10 nM.
The same measure, in the same setting: with `CC(C)(CNC(=O)C(=O)Oc1cncs1)CNC(=O)c1ccc(Nc2nc(NC3(c4ccc(Cl)cc4)CC3)nc(OCC(F)(F)F)n2)cc1` [Compound 3179] the figure was 0.01 to 10 nM.
In the case of `CC(C)(CNC(=O)C(=O)Nc1ccccc1-n1ccnc1)CNC(=O)c1ccc(Nc2nc(NC3(c4ccc(Cl)cc4)CC3)nc(OCC(F)(F)F)n2)cc1` [Compound 3180], the half-maximal effective concentration (EC50) was in the range of 0.01 to 10 nM.
For `COC(=O)[C@H](CNC(=O)C(=O)Nc1ccc(-c2ccncc2)cc1)NC(=O)c1ccc(Nc2nc(NC3(c4ccc(Cl)cc4)CC3)nc(OCC(F)(F)F)n2)cc1` [Compound 3181], the concentration giving a half-maximal response (EC50) was in the range of 0.01 to 10 nM.
On the same count and under the same terms, with `COC(=O)[C@H](CNC(=O)C(=O)Nc1ccc(Cn2cncn2)cc1)NC(=O)c1ccc(Nc2nc(NC3(c4ccc(Cl)cc4)CC3)nc(OCC(F)(F)F)n2)cc1` [Compound 3182] the figure was 0.01 to 10 nM; with `COC(=O)[C@H](CNC(=O)C(=O)Nc1ccc(-n2ccnc2)cc1)NC(=O)c1ccc(Nc2nc(NC3(c4ccc(Cl)cc4)CC3)nc(OCC(F)(F)F)n2)cc1` [Compound 3183], 0.01 to 10 nM; with `COC(=O)[C@H](CNC(=O)C(=O)Nc1ccc(Oc2ccc(F)cc2)cc1)NC(=O)c1ccc(Nc2nc(NC3(c4ccc(Cl)cc4)CC3)nc(OCC(F)(F)F)n2)cc1` [Compound 3184], 0.01 to 10 nM.

The values are drawn from patent US8916702B2 (priority 2012, dated 2014).
